Laboratory results taken from patent US9505834B2, “Methods for controlling the galactosylation profile of recombinantly-expressed proteins” (AbbVie Inc., priority 2011, dated 2016).

Assays:
[1] = system: adalimumab-producing CHO cell line; test: Example 2 culture growth & productivity, HyClone CDM4CHO; format: cell-based, Chinese Hamster; conditions: galactose 0 to 40 mM and/or manganese chloride up to 10 μM
Procedure: (§1) For all studies with CHO cell lines described throughout this invention, samples were collected daily and measured for cell density and viability using a Cedex cell counter. Retention samples for titer analysis via Poros A method were collected by centrifugation at 12,000 RPM for 5 min when the culture viability began declining. The cultures were harvested by collecting 125 mL aliquots and centrifuging at 3,000 RPM for 30 min when culture viability was near or below 50%. All supernatants were stored at −80° C. until analysis.
(§2) Growth and production media for the adalimumab-producing CHO cell line were prepared using Thermo Scientific HyClone chemically defined media CDM4CHO without L-glutamine (Catalogue #SH30558.02). […] All media were filtered through Corning 0.5 L or 1 L (0.22 μm PES) filter systems and stored at 4° C. until use.
(§3) Upon thaw, cells were adapted to and expanded in HyClone CDM4CHO media for 5 (2 to 3 day each) passages in a combination of 250 mL, 500 mL, and 1000 mL Corning vented non-baffled shake flasks. Production cultures were initiated in duplicate 500 mL Corning vented non-baffled shake flasks (200 mL working volume) at an initial VCD of approximately 0.5×10^6 cells/mL. Cultures were maintained on orbital shakers at 110 RPM in a dry incubator at 35° C. and 5% CO2. […]

[2] = system: adalimumab-producing CHO cell line #3; test: Example 5 oligosaccharide analysis, CDM GIA-1, fed-batch 3 L bioreactors; format: cell-based, Chinese Hamster
Procedure: as §1
(§4) For all studies, the harvest samples were Protein A purified and prepared for the oligosaccharide assay using the following procedures. As a first step in the process of establishing the identity and quantifying the oligosaccharides, they are released from the protein by enzymatic digestion with N-glycanase. Once the glycans are released, the free reducing end of each glycan is labeled by reductive amination with a fluorescent tag, 2-aminobenzamide (2-AB). The resulting labeled glycans are separated by normal-phase HPLC (NP-HPLC) in acetonitrile: 50 mM ammonium formate, pH 4.4, and detected by a fluorescence detector. Quantitation is based on the relative area percent of detected sugars. Throughout this invention, the relative area percentages of the agalactosyl fucosylated biantennary oligosaccharides, denoted as NGA2F+NGA2F-GlcNAc sum, and the galactose-containing fucosylated biantennary oligosaccharides NA1F+NA2F sum are reported and discussed.
Growth and production media for the adalimumab-producing CHO cell line #3 were prepared using the proprietary Life Technologies Gibco chemically defined media, GIA-1.
Upon thaw, cells were expanded in Corning vented non-baffled shake flasks maintained on orbital shakers at 140 RPM, and in 10 L cell bags (2 L working volume) maintained at 25 RPM, 7° angle, and 0.25 SLPM airflow in a dry incubator at 36° C. and 5% CO2. Production cultures were initiated in 3 L bioreactors (1.4 L initial working volume) at 36° C., 30% dissolved oxygen, 200 RPM, and pH 6.9±0.2. A fixed split ratio of cells to media of 1:6.7 was utilized to initiate the production stage cultures. A temperature shift was performed when the culture VCD reached a value higher than 5×10^6 cells/mL. The chemically-defined feed from Life Technologies Gibco JCL-5 was added as follows: 4% (v/v)—day 2, 6%—day 4, 8%—day 6, 10%—day 8, and 10%—day 10. […] Bioreactors were harvested at a viability of approximately 50% or on production day 17, whichever condition occurred first.
Galactose was supplemented at 0 and 30 mM concentrations in both production and feed media.

[3] = system: adalimumab-producing CHO cell line; test: Example 2 oligosaccharide analysis, HyClone CDM4CHO, batch shake flasks; format: cell-based, Chinese Hamster
Procedure: as §1, §4, §2
as §3, with “CO2. A glucose solution (1.25% (v/v) of 40% solution) was fed when the media glucose concentration fell below 3 g/L.” for “CO2.”

[4] = system: adalimumab-producing NSO cell line; test: Example 6 oligosaccharide analysis, CDM PFBM-3/PFFM-4, fed-batch shake flasks; format: cell-based
Text: as §4
(§5) Growth and production media for the adalimumab-producing NSO cell line were prepared using a proprietary Life Technologies Gibco chemically defined media, PFBM-3 basal medium plus PFFM-4 feed medium.
(§6) Upon thaw, cells were expanded for 3 to 5 (2 days each) passages in a combination of 250 mL, 500 mL, 1 L, 2 L and 3 L Corning vented non-baffled shake flasks. Production cultures were initiated in single 1 L Corning vented non-baffled shake flasks (240 mL initial working volume) at an initial VCD of approximately 2.5×10^5 cells/mL. Cultures were maintained on orbital shakers at 100 RPM in a dry incubator at 37° C. and 5% CO2. The shake flask study was run in a fed-batch mode and the culture was fed PFFM-4 as follows: 24 mL—day 2, 28.8 mL—day 4, 28.8 mL—day 6, and 28.8 mL—day 8.
(§7) Samples were collected every 2 days and measured for cell density and viability using a Cedex cell counter. Retention samples for titer analysis via Poros A method were collected daily beginning on Day 8 by centrifugation at 2,000 g for 10 min and then filtered through 0.2 μm PVDF syringe filter. The cultures were harvested on production day 10. The entire culture was collected, chilled on ice to approximately 0° C. for 1.5 hours, the cells and debris flocculated at pH 5.0 by the addition of 1M citric acid and held for 15 minutes, and centrifuged at 4000x g for 15 min at 5° C. The supernatant was passed through 0.20 μm Millipore Stericup PES filters, and, immediately post filtration, the acidified clarified cell-free harvest was neutralized with 2M Tris to pH 7.1±0.2. The cell free harvest was transferred to PETG bottles and stored at −80° C. until analysis.
(§8) Galactose was supplemented at the following levels in both production and feed media: 0, 1, 4, 5, and 10 mM.

[5] = system: adalimumab-producing NSO cell line; test: Example 6 culture growth & productivity; format: cell-based; conditions: for culture growth and viability profiles: galactose 0 to 5 mM and/or manganese chloride up to 0.5 μM
Procedure: as §5, §6, §7, §8

[6] = system: CHO cell line producing mAb #1; test: Example 7 oligosaccharide analysis, CDM GIA-1, batch shake flasks; format: cell-based, Chinese Hamster
Procedure: as §1, §4
Growth and production media for the CHO cell line producing mAb #1 were prepared using a proprietary Life Technologies Gibco chemically defined media, GIA-1. […] All media were filtered through Corning 0.5 L or 1 L filter systems (0.22 μm PES) and stored at 4° C. until use.
as §3, with “were” for “were adapted to and”, “expanded” for “expanded in HyClone CDM4CHO media”, “6 (3” for “5 (2 to 3”, “125” for “110”, “CO2. A glucose solution (1.25% (v/v) of 40% solution) was fed when the media glucose concentration fell below 3 g/L.” for “CO2.”

[7] = 0.2 μM manganese chloride alone
[8] = manganese chloride alone, range 0 to 40 μM
[9] = 0.5 μM manganese chloride alone

Compound: O=C[C@H](O)[C@@H](O)[C@@H](O)[C@H](O)CO [galactose, D(+)Galactose]
- cell growth and viability profiles [1]: comparable to the control cultures
- decrease in the NGA2F+NGA2F-GlcNac sum ([2]; 30 mM galactose alone): 4%
- increase in the NA1F+NA2F sum ([2]; 30 mM galactose alone): 3%
- decrease in the NGA2F+NGA2F-GlcNac sum ([3]; 40 mM galactose alone): 6%
- increase in the NA1F+NA2F sum ([3]; galactose alone up to 40 mM): 6%
- maximum decrease in the NGA2F+NGA2F-GlcNac sum ([3]; galactose alone up to 40 mM): 6%
- decrease in the NGA2F+NGA2F-GlcNac sum ([4]; 4 mM galactose alone): 2%
- increase in the NA1F+NA2F sum ([4]; 10 mM galactose alone): 15%
- maximum decrease in the NGA2F+NGA2F-GlcNac sum ([4]; 10 mM galactose alone): 14%
- culture growth and viability profiles [5]: comparable to the control condition
- effect on culture growth and productivity ([5]; galactose 10 mM): detrimental effect on culture growth and productivity
- harvest titer lower than control condition ([5]; galactose 10 mM): 60%
- decrease in the NGA2F+NGA2F-GlcNac sum ([6]; 40 mM galactose alone): 12%
- maximum decrease in the NGA2F+NGA2F-GlcNac sum ([6]; galactose alone up to 40 mM): 12%
- maximum increase in the NA1F+NA2F sum ([6]; galactose alone up to 40 mM): 13%

Compound: Manganese (II) Chloride [manganese chloride]
- cell growth and viability profiles [1]: comparable to the control cultures
- decrease in the NGA2F+NGA2F-GlcNac sum [2, 7]: 15%
- increase in the NA1F+NA2F sum [2, 7]: 16%
- increase in the NA1F+NA2F oligosaccharides ([2]; 1 μM manganese chloride alone): 28%
- maximum decrease in the NGA2F+NGA2F-GlcNac ([2]; 1 μM manganese chloride alone): 26%
- decrease in the NGA2F+NGA2F-GlcNac sum ([3]; 40 μM manganese chloride alone): 5%
- maximum decrease in the NGA2F+NGA2F-GlcNac sum [3, 8]: 5%
- maximum increase in the NA1F+NA2F sum [3, 8]: 4%
- decrease in the NGA2F+NGA2F-GlcNac sum [4, 7]: 12%
- increase in the NA1F+NA2F sum [4, 9]: 20%
- maximum decrease in the NGA2F+NGA2F-GlcNac sum [4, 9]: 18%
- culture growth and viability profiles [5]: comparable to the control condition
- decrease in the NGA2F+NGA2F-GlcNac sum ([6]; 40 μM manganese chloride alone): 20%
- maximum decrease in the NGA2F+NGA2F-GlcNac sum [6, 8]: 26%
- maximum increase in the NA1F+NA2F sum [6, 8]: 27%
